Results as given in patent US10351871B2, “Desaturases and methods of using them for synthesis of polyunsaturated fatty acids” (Washington State University, priority 1998, dated 2019).

Assays:
[1] = molecular target: T1, C. elegans Δ^6-desaturase (FAT-3) (Caenorhabditis elegans, UniProt Q23221); assay: C. elegans FAT-3 expressed in yeast (pMK195, ADH promoter), substrate desaturation; assay type: cell-based; details: yeast expressing fat-3 from pMK195
T1 construct: Codons for amino acid residues 38-67 of W08D2.4 were not present in the cDNA; expressed in transfected cells; host or cells: yeast (Saccharomyces cerevisiae), vector pMK195, constitutive ADH promoter
T1 sequence (Q23221 1-443): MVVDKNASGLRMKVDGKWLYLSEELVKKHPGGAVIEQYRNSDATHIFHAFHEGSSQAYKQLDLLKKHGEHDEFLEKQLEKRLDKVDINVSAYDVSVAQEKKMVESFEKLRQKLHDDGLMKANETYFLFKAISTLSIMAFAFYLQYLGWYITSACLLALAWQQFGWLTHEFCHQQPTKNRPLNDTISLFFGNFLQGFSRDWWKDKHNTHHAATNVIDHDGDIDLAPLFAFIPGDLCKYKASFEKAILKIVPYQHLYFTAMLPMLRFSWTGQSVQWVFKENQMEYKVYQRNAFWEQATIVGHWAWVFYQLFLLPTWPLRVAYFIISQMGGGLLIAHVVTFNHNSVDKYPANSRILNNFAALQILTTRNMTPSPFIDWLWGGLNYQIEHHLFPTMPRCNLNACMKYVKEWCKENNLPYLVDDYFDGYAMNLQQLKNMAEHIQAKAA
Description: The fat-3 gene was expressed in the yeast expression vector pMK195 containing the constitutive ADH promoter.

Δ^5- and Δ^8-desaturases = assay: Yeast cell transformed with both Δ^5- and Δ^8-desaturase genes (pYFAT4 + pYX232-541) fed fatty acid substrates, GC; assay type: cell-based, Saccharomyces cerevisiae; details: for One added desaturation / Unconverted substrate: overnight culture at 28° C.; for Doubly desaturated product: products 20:5 (5, 8, 11, 14, 17), 20:4 (5, 8, 11, 14), 20:3 (5, 8, 11)
Description: The cDNA portion of pJW541 (Wallis and Browse, Arch. Biochem. Biophys. 365:307-316, 1999) containing the Euglena Δ^8-desaturase was excised from that plasmid with the restriction enzymes EcoRI and SpeI. The purified DNA fragment representing the insert was ligated into the yeast expression vector pYX232 (R&D Systems, Inc.) that had been prepared by digestion with EcoRI and NheI, to give compatible sticky ends. (Plasmid pYX232 carries the marker conferring yeast prototrophy for tryptophan (TRP1 mutation), and uses the triose phosphate isomerase (TPI) promoter for constitutive expression of the inserted DNA.) The resulting plasmid, pYX232-541, was introduced into the Saccharomyces cerevisiae strain already harboring the Δ^5-desaturase (pYFAT4; Watts and Browse, Arch. Biochem. Biophys. 362:175-182, 1999) plasmid that confers yeast prototrophy for uracil using a lithium acetate transformation procedure (Invitrogen). Transformants were selected simultaneously for uracil and tryptophan prototrophy. Selected colonies arising after the transformation were inoculated into yeast minimal medium that also lacked both uracil and tryptophan.
For analysis of activity, separate cultures were supplemented with one of three fatty acid substrates provided as sodium salts as described (Wallis and Browse, Arch. Biochem. Biophys. 365:307-316, 1999). After overnight culture at 28° C., the cultures were harvested by centrifugation and washed. Fatty acid methyl esters were prepared using the standard methods described in Miguel and Browse J. Biol. Chem. 267:1502-1509, 1992.

[2] = molecular target: T2, Euglena Δ^8-desaturase (EFD1) (Euglena gracilis, UniProt Q9SWQ9); assay type: cell-based; details: for desaturated share of the total incorporated 20-carbon fatty acid: S. cerevisiae with pYES2-541, 2% galactose, 0.2 mM fatty acid soap, overnight at 28° C.; for substrate preference over 20:1: EFD1 expressed in yeast; for desaturation of Δ^5 and Δ^6 substrates by EFD1 (in words): S. cerevisiae with pYES2-541, medium supplemented with the fatty acid
T2 construct: The resulting yeast expression construct containing the open reading frame under the control of a galactose-inducible promoter was designated pYES2-541; expressed in transfected cells; host or cells: Saccharomyces cerevisiae INVSc1, plasmid pYES2-541 (GAL1 promoter)
T2 sequence (Q9SWQ9 other isoform, or with tags, fused parts or gaps with the stated changes): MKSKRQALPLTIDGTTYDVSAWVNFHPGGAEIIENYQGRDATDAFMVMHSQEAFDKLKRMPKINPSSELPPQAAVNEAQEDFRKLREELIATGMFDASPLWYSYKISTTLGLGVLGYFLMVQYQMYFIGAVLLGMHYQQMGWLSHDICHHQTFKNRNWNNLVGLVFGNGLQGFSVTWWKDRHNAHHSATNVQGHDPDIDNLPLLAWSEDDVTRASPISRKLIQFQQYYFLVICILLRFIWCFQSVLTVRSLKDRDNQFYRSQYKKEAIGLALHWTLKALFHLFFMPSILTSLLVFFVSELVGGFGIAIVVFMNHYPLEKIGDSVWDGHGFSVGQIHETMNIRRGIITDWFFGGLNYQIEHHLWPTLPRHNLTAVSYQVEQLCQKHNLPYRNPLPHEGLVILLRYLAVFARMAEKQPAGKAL
Description: For E. gracilis, the cloned Δ^8 gene was transferred to the yeast expression vector pYES2 (Invitrogen, Carlsbad, Calif.) by standard cloning techniques (Ausubel, Current Protocols In Molecular Biology, 1988) using enzymes obtained from New England Biolabs, Beverly, Mass. The resulting yeast expression construct containing the open reading frame under the control of a galactose-inducible promoter was designated pYES2-541.
Saccharomyces cerevisiae strain INVSc1 (Invitrogen) was transformed with pYES2-541 and cultured using standard methods (Ausubel, Current Protocols In Molecular Biology, 1988). Liquid medium containing 2% galactose was supplemented with fatty acid soaps (NuCheck Prep, Elysian Minn.) at a final concentration of 0.2 mM. Tergitol (1%, NP40) was added to the yeast cultures to enhance fatty acid uptake (Stukey et al., J. Biol. Chem. 264:16537-16544, 1989), except for cultures containing 20:1, where 5% DMSO was substituted. Yeast were incubated overnight at 28° C., harvested by centrifugation, washed once with 1% Tergitol, once with 0.5% Tergitol, and finally once with distilled water.
(§1) Extraction of lipids and preparation of fatty acid methyl esters was carried out by standard methods (Miguel and Browse, J. Biol. Chem. 267:1502-1509, 1992). Gas chromatography of the methyl esters was conducted by established methods (Spychalla et al., Proc. Natl. Acad. Sci. USA 94:1142-1147, 1997). Fatty acid 4,4-Dimethyloxazoline (DMOX) derivatives of yeast lipid extracts were prepared by standard methods (Fay and Richli, J. Chromatogr. 541:89-98, 1991). GC-mass spectrometry was conducted on a Hewlett-Packard 6890 series GC-MS fitted with a 30 m×[…] HPSMS column, operating at an ionization voltage of 70 eV with a scan range of 50-550 Da. Fatty acids and their derivatives were identified where possible by comparison with authentic standards (NuCheck Prep).
To confirm the activity of the enzyme, the EFD1 cDNA was transferred from pJW541 to yeast expression vector pYES2 under the control of a galactose-inducible promoter. The resulting construct, pYES2-541, was introduced into S. cerevisiae. […] Accordingly, yeast cultures were supplemented with various fatty acid soaps, using a yeast strain containing the empty vector as control, and analyzed the fatty acids of the cultures by methyl-ester derivatization and gas chromatography.

[3] = molecular target: T3, C. elegans Δ^5-desaturase (FAT-4) (Caenorhabditis elegans, UniProt G5EG11); assay: C. elegans FAT-4 (pYES2, fat-4) expressed in yeast fed fatty acid substrates, GC analysis; assay type: cell-based; details: for activity of FAT-4 on substrate (in words): yeast expressing FAT-4, substrate fed; for substrate converted to desaturation product: yeast expressing FAT-4, 2% galactose, 0.2 mM fatty acid, 16 hours, 18:1 is endogenous; for amount desaturated relative to conventional substrate 20:3Δ^8,11,14: yeast expressing the C. elegans Δ^5-desaturase gene
T3 construct: The resulting peptide length was 447 amino acids instead of the previously predicted 454 amino acids; expressed in transfected cells; host or cells: Saccharomyces cerevisiae INVSc1, plasmid pYFAT4 (pYES2, GAL1 promoter)
T3 sequence (G5EG11 1-447): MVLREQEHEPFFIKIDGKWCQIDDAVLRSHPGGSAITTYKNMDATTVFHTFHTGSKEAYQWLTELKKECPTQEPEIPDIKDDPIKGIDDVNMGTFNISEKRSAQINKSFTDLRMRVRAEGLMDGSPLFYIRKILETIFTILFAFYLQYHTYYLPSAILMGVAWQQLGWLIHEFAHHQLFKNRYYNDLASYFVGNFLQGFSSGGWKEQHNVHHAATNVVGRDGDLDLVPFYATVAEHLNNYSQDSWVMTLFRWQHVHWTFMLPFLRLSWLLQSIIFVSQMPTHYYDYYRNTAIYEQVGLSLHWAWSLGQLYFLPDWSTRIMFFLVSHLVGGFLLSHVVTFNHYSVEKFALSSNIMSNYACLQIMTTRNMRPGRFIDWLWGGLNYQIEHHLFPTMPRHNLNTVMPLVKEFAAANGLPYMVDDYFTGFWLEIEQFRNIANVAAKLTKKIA
Procedure: To express the C. elegans Δ^5-desaturase, the fat-4 cDNA amplification product (see Example 3) was digested with HindIII and BamH1 and ligated to the yeast expression vector pYES2 (Invitrogen) cut with HindIII and BamH1. The resulting plasmid was named pYFAT4.
For the C. elegans Δ^5 gene, the constructs were transformed into Saccharomyces cerevisiae strain INVSc1 using the S.c. EasyComp transformation kit (Invitrogen). For experiments with the FAT-4 peptide, transformed yeast were grown overnight in uracil-deficient media containing 2% galactose, 0.2 mM fatty acid, and 1% NP-40.
as §1
To determine the enzymatic activity of the FAT-4 desaturase-like protein, the protein was expressed in Saccharomyces cerevisiae supplemented with polyunsaturated fatty acid substrates that are not normally present in this yeast. The FAT-4 protein was expressed in the yeast expression vector pYES2 from the GAL1 promoter by growing the cells in the presence of galactose and various fatty acids. After 16 hours of growth, the cells were analyzed for total fatty acid composition by gas chromatography (GC).

[4] = molecular target: T4, Δ^5-desaturase activity in microsomal extracts of mammalian liver (Rattus norvegicus, UniProt Q920R3); details: labeled substrate; cited from earlier work
T4 construct: the rates of desaturation in microsomal extracts of mammalian liver; host or cells: microsomal extracts of mammalian liver
T4 sequence (Q920R3 whole entry, stated change not applied): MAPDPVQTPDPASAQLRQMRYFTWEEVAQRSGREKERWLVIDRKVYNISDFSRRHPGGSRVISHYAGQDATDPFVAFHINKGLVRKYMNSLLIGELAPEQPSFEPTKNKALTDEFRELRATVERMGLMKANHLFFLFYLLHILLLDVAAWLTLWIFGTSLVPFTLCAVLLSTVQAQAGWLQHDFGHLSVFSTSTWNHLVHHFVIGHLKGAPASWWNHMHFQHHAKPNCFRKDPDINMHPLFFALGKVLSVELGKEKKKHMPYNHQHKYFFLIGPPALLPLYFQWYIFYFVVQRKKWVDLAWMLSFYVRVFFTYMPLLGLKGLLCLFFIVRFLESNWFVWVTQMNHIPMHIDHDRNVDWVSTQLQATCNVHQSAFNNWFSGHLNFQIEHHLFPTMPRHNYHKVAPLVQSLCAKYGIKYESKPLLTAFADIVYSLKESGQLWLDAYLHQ

SMILES | activity of FAT-3 on substrate (in words) [1] | One added desaturation (Δ^5- and Δ^8-desaturases) | Unconverted substrate (Δ^5- and Δ^8-desaturases) | Doubly desaturated product (Δ^5- and Δ^8-desaturases) | desaturated share of the total incorporated 20-carbon fatty acid [2] [%] | activity of FAT-4 on substrate (in words) [3] | rate of conversion to 20:3Δ^5,11,14 relative to rate of conversion of labeled 20:3Δ^8,11,14 to 20:4Δ^5,8,11,14 [4] [%] | substrate preference over 20:1 [2] | substrate converted to desaturation product [3] [%] | amount desaturated relative to conventional substrate 20:3Δ^8,11,14 [3] | desaturation of Δ^5 and Δ^6 substrates by EFD1 (in words) [2]
CCCCCCCCC=CCCCCCCCCCC(=O)O [20:1Δ^11] | no activity | 18 mass percent of incorporated 20-carbon fatty acids | 72 mass percent of incorporated 20-carbon fatty acids | 11 mass percent of incorporated 20-carbon fatty acids | 32 | No novel peaks were detected | – | – | – | – | –
CCCCCC=CCC=CCCCCCCCCCC(=O)O [20:2Δ^11,14] | no activity | 18 mass percent of incorporated 20-carbon fatty acids | 70 mass percent of incorporated 20-carbon fatty acids | 13 mass percent of incorporated 20-carbon fatty acids | 73 | – | 41 | greater than two-fold preference | 27 | less than half | –
CCC=CCC=CCC=CCCCCCCCCCC(=O)O [20:3Δ^11,14,17] | no activity | 17 mass percent of incorporated 20-carbon fatty acids | 71 mass percent of incorporated 20-carbon fatty acids | 11 mass percent of incorporated 20-carbon fatty acids | 70 | – | – | greater than two-fold preference | 26 | less than half | –
CCCCC/C=C\C/C=C\C/C=C\CCCCC(=O)O [γ-linolenic acid] | – | – | – | – | – | no activity | – | – | – | – | –
CC/C=C\C/C=C\C/C=C\CCCCCCCC(=O)O [α-linolenic acid] | capable of desaturating | – | – | – | – | – | – | – | – | – | no desaturation occurred
CCCCC/C=C\C/C=C\CCCCCCCC(=O)O [linoleic acid] | able to desaturate | – | – | – | – | no activity | – | – | – | – | no desaturation occurred
CCCCC/C=C\C/C=C\C/C=C\CCCCCCC(=O)O [di-homo-γ-linolenic acid] | no activity | – | – | – | – | – | – | – | 55 | – | –
